Test results from patent publication US12344623B2, “Thiazolopyridine derivatives as adenosine receptor antagonists” (Merck Patent GmbH, priority 2019, dated 2025).
pIC50: −log10 of the molar value.

Assays:
Assay type in all cases: cell-based
mouse Pan T cells = test: mTcell assay, cAMP, agonist NECA; conditions: Mus musculus, T-cell
Excerpt: Adenosine (Ado) in tumor microenvironment can inhibit T cell activity by signaling through A2A receptors and suppress cytokine secretion by T cells. […] Potential A2A antagonists or A2A/A2B dual antagonists can rescue T cells from this inhibition. Herein, we describe the in vitro system we established using Pan T cells from mouse spleens to screen potential A2A antagonists or A2A/A2B dual antagonists for their activity. The method described involves the use of CD3/CD28 pre-coated beads to stimulate Pan T cells purified from mouse splenocytes, combined with the addition of A2A agonist along with potential A2A or A2A/A2B dual antagonists to evaluate potentiation of T cell cytokine production.
Pan T-cells are isolated from black 6 mice by manual dissociation and purified using a Miltenyi Pan T-cell isolation kit. The isolated T-cells are activated in 96 well plates for 48 hours using anti-CD3/CD28 beads in T-cell proliferation media.
After 48 hours, the T-cells are pooled, counted and suspended in serum free media containing 0.1% BSA. The cells are plated at 50,000 cells per well in 10 ul of media and incubated for 2 hours at 37° C. Test compounds are dispensed into the wells at a 10-point dose response, starting at a concentration of 10 uM. […] The plates are incubated for 30 minutes at 37° C. and assayed for cAMP levels using the Cisbio cAMP Dynamic2 reagent kit by adding 10 ul of the kit reagents to each well. The plates are incubated for 1 hour at room temperature and the HTRF signal is read on an Envision plate reader. The raw data is analyzed in Genedata Screener and the resulting data is loaded into the database.

human A2B receptor = molecular target: T1, human A2B receptor (Homo sapiens, UniProt P29275); test: Functional A2B receptor activity, recombinant HEK293 cells, cAMP (HTRF), agonist NECA; conditions: read-out: Functional A2B receptor activity, HEK293, cAMP, IC50
T1 construct: expressed in transfected cells; host or cells: HEK293
T1 sequence (P29275 1-332): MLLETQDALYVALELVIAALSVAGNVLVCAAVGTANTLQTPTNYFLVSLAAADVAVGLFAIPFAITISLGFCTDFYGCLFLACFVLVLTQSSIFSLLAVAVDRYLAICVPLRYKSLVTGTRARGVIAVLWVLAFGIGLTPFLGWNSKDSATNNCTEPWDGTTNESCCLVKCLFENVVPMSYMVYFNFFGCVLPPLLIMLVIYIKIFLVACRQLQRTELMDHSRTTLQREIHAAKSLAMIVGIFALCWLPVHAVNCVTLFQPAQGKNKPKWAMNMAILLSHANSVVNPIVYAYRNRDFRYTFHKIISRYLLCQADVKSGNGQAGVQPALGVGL
Summary of the method: (§1)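 Cells were seeded, then treated with forskolin, test compound and agonist. After a 30 min incubation, HTRF detection reagents were added and intracellular cAMP was read. Values were scaled between an inhibitor control and DMSO before fitting.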

human A3 receptor = molecular target: T2, human A3 receptor (Homo sapiens, UniProt P0DMS8); test: Functional A3 receptor activity, recombinant CHO cells, cAMP (HTRF), forskolin, agonist IB-MECA; conditions: recombinant CHO cells, forskolin, agonist IB-MECA; read-out: Functional A3 receptor activity, CHO, cAMP, IC50
T2 construct: expressed in transfected cells; host or cells: CHO
T2 sequence (P0DMS8 1-318): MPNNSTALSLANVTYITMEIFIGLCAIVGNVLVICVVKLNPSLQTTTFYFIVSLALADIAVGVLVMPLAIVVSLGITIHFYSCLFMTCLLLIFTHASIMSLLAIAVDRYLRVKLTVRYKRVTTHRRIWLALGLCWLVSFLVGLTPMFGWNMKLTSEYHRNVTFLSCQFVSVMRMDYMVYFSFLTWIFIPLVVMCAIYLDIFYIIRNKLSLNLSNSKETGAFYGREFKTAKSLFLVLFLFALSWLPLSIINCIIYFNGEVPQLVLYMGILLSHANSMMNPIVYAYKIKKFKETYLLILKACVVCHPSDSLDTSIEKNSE
Summary of the method: (§2)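 Recombinant CHO lines carrying either receptor receive forskolin, compound and the matching agonist, CPA or IB-MECA. After 30 min, HTRF reagents are added and cAMP is quantified. Values are normalized to inhibitor and neutral DMSO controls, then fitted.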

human A2A receptor [1] = molecular target: T3, human A2A receptor (Homo sapiens, UniProt P29274); test: Functional A2A receptor activity, recombinant HEK293 cells, cAMP (HTRF), agonist NECA; parameters: expressed in transfected cells; host or cells: HEK293; conditions: read-out: Functional A2A receptor activity, HEK293, cAMP, IC50
Summary of the method: as §1

human A2A receptor [2] = molecular target: T3, human A2A receptor; test: Human T cells, endogenous A2A receptor, cAMP, agonist NECA; conditions: read-out: hTcell data, cAMP, IC50
Description: The endogenous functional activity of the Gs-coupled human A2A receptor was measured in T cells, where this receptor is highly expressed. Determination of receptor activity was done by quantification of cAMP, which is a second messenger for adenosine receptors.
In short, human pan T cells were isolated from human PBMC (MACS Pan T Cell Isolation Kit, Miltenyi Biotec) that have been derived from fresh whole blood. The T cells were seeded in 384-well microtiter plates and treated with test compounds. […] Finally, HTRF reagents (cAMP Femto Kit, CisBio) were added to the wells, and after 1 h cellular cAMP levels were determined using the ENVISION (Perkin Elmer) plate reader.
The obtained raw data were normalized against the inhibitor control and the neutral control (DMSO) and the normalized data were fitted using Genedata Screener software.

human A1 receptor = molecular target: T4, human A1 receptor (Homo sapiens, UniProt P30542); test: Functional A1 receptor activity, recombinant CHO cells, cAMP (HTRF), forskolin, agonist CPA; conditions: recombinant CHO cells, forskolin, agonist CPA; read-out: Functional A1 receptor activity, CHO, cAMP, IC50
T4 construct: expressed in transfected cells; host or cells: CHO
T4 sequence (P30542 1-326): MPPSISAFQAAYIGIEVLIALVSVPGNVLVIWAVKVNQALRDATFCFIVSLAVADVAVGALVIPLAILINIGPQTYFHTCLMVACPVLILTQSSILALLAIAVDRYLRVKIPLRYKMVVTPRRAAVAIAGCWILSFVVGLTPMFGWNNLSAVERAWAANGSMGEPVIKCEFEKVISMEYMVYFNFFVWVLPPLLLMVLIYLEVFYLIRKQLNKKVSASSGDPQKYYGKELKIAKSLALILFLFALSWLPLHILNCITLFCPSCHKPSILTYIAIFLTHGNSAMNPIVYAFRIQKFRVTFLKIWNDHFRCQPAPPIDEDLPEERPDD
Summary of the method: as §2

T3 sequence (P29274 whole entry): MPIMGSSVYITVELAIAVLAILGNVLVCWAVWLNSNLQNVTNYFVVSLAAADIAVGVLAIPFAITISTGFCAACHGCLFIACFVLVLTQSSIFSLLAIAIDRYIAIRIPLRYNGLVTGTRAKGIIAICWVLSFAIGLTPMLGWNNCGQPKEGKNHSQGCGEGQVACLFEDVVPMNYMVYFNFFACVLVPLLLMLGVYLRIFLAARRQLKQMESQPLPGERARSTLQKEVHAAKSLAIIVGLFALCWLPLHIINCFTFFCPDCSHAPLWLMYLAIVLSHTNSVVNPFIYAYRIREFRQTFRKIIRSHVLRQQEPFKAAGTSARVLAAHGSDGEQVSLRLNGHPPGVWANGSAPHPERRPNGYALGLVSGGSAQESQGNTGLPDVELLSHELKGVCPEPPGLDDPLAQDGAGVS

| Compound | pIC50 (mouse Pan T cells) | pIC50 (human A2B receptor) | pIC50 (human A3 receptor) | pIC50 (human A2A receptor [1]) | pIC50 (human A2A receptor [2]) | pIC50 (human A1 receptor) |
| --- | --- | --- | --- | --- | --- | --- |
| COc1ccc(-c2ccccc2)c2sc(NC(=O)NCCN3CCCCC3)nc12 [drawing 206] | < 6.00 | – | – | – | – | – |
| COC(=O)N(C)Cc1ccc(C(=O)Nc2nc3c(OC)ncc(-c4ccccc4)c3s2)cc1 [Compound 97, [4-(4-Methoxy-7-phenyl-thiazolo[4,5-c]pyridin-2-ylcarbamoyl)-benzyl]-methyl-carbamic acid methyl ester] | – | > 7.00 | < 6.00 | > 8.00 | > 7.00 | < 6.00 |
| COc1ncc(C2=CCOCC2)c2sc(NC(=O)c3c[nH]cn3)nc12 [Compound 65, 1H-Imidazole-4-carboxylic acid [7-(3,6-dihydro-2H-pyran-4-yl)-4-methoxy-thiazolo[4,5-c]pyridin-2-yl]-amide] | – | > 8.00 | < 6.00 | > 8.00 | > 8.00 | > 7.00 |
| COc1ncc(C2=CCC(F)(F)CC2)c2sc(NC(=O)N3CCC4(CCOCC4)C3)nc12 [Compound 63, 8-Oxa-2-aza-spiro[4.5]decane-2-carboxylic acid [7-(4,4-difluoro-cyclohex-1-enyl)-4-methoxy-thiazolo[4,5-c]pyridin-2-yl]-amide] | – | > 7.00 | < 6.00 | > 8.00 | > 8.00 | > 6.00 |
| COc1ncc(C2COCCO2)c2sc(NC(=O)c3ccc(-c4nnn[nH]4)cc3)nc12 (centres unmarked) [Compound 164, N-(7-[1,4]Dioxan-2-yl-4-methoxy-thiazolo[4,5-c]pyridin-2-yl)-4-(1H-tetrazol-5-yl)-benzamide] | – | > 8.00 | < 6.00 | > 8.00 | > 7.00 | < 6.00 |
| COc1ncc(C2=CCOCC2)c2sc(NC(=O)c3ccc(-n4ccnn4)cc3)nc12 [Compound 71, N-[7-(3,6-dihydro-2H-pyran-4-yl)-4-methoxy-[1,3]thiazolo[4,5-c]pyridin-2-yl]-4-(1H-1,2,3-triazol-1-yl)benzamide] | – | > 8.00 | < 6.00 | > 8.00 | > 8.00 | > 6.00 |
| COc1ncc(-c2ccoc2)c2sc(NC(=O)N3CCC4(CCOCC4)C3)nc12 [Compound 52, 8-Oxa-2-aza-spiro[4.5]decane-2-carboxylic acid (7-furan-3-yl-4-methoxy-thiazolo[4,5-c]pyridin-2-yl)-amide] | > 7.00 | > 8.00 | < 6.00 | > 8.00 | – | < 6.00 |
| COc1ncc([C@H]2COCCO2)c2sc(NC(=O)c3ccc(C(=O)O)cc3)nc12 [Compound 170, N-((S)-7-[1,4]Dioxan-2-yl-4-methoxy-thiazolo[4,5-c]pyridin-2-yl)-terephthalamic acid] | – | > 7.00 | < 6.00 | > 8.00 | > 8.00 | < 6.00 |
| COc1ncc(-c2cccc(Oc3cnn(C)c3)c2)c2sc(NC(=O)N3CCC4(CCOCC4)C3)nc12 [Compound 147, 8-Oxa-2-aza-spiro[4.5]decane-2-carboxylic acid {4-methoxy-7-[3-(1-methyl-1H-pyrazol-4-yloxy)-phenyl]-thiazolo[4,5-c]pyridin-2-yl}-amide] | > 8.00 | > 8.00 | > 6.00 | > 8.00 | – | < 6.00 |
| COc1ncc(C2=CCOCC2)c2sc(NC(=O)c3ccc(C(=O)O)cc3)nc12 [Compound 72, 4-{[7-(3,6-dihydro-2H-pyran-4-yl)-4-methoxy-[1,3]thiazolo[4,5-c]pyridin-2-yl]carbamoyl}benzoic acid] | – | > 8.00 | < 6.00 | > 8.00 | > 7.00 | > 6.00 |
| [2H]C([2H])([2H])Oc1ncc(C2=CCOCC2)c2sc(NC(=O)N3CC[C@]4(CCCOC4)C3)nc12 [Compound 173, (5R)-N-[7-(3,6-dihydro-2H-pyran-4-yl)-4-(2H3)methoxy-[1,3]thiazolo[4,5-c]pyridin-2-yl]-7-oxa-2-azaspiro[4.5]decane-2-carboxamide] | – | > 8.00 | < 6.00 | > 8.00 | > 8.00 | > 6.00 |
| COc1ncc(C2COCCO2)c2sc(NC(=O)c3ccc(C(=O)O)cc3)nc12 (centres unmarked) [Compound 161, N-(7-[1,4]Dioxan-2-yl-4-methoxy-thiazolo[4,5-c]pyridin-2-yl)-terephthalamic acid] | – | > 7.00 | < 6.00 | > 8.00 | > 7.00 | < 6.00 |
| COc1nc(F)c(C2CCOCC2)c2sc(NC(=O)N3CC[C@@]4(CCOC4)C3)nc12 [Compound 37, (R)-2-Oxa-7-aza-spiro[4.4]nonane-7-carboxylic acid [6-fluoro-4-methoxy-7-(tetrahydro-pyran-4-yl)-thiazolo[4,5-c]pyridin-2-yl]-amide] | – | > 7.00 | < 6.00 | > 8.00 | > 8.00 | < 6.00 |

The remaining lines, values ahead:

| pIC50 (mouse Pan T cells) | pIC50 (human A2B receptor) | pIC50 (human A3 receptor) | pIC50 (human A2A receptor [1]) | pIC50 (human A2A receptor [2]) | pIC50 (human A1 receptor) | Compound |
| --- | --- | --- | --- | --- | --- | --- |
| > 6.00 | – | – | – | – | – | COc1cnc(N2CCOCC2)c2sc(NC(=O)N3CCCCC3)nc12 [drawing 212] |
| < 6.00 | – | – | – | – | – | COc1cnc(N2CCOCC2)c2sc(NC(=O)N3CCC4(CCCO4)CC3)nc12 [drawing 208] |
| > 6.00 | – | – | – | – | – | COc1cnc(C2CCOCC2)c2sc(NC(=O)N3CCC(O)CC3)nc12 [drawing 210] |
| > 6.00 | – | – | – | – | – | COc1ccc(N2CCOCC2)c2sc(NC(=O)N3CCCCC3)nc12 [drawing 211] |
| > 6.00 | – | – | – | – | – | COc1cnc(N2CCOCC2)c2sc(NC(=O)N3CCC(CO)CC3)nc12 [drawing 207] |
| > 7.00 | – | – | – | > 8.00 | – | COc1ncc([C@H]2COCCO2)c2sc(NC(=O)N3CCC4(CCOCC4)C3)nc12 [Compound 152, 8-Oxa-2-aza-spiro[4.5]decane-2-carboxylic acid ((S)-7-[1,4]dioxan-2-yl-4-methoxy-thiazolo[4,5-c]pyridin-2-yl)-amide] |
| > 6.00 | – | – | – | – | – | COc1ccc(N2CCOCC2)c2sc(NC(=O)N3CCC4(CCCO4)CC3)nc12 [drawing 209] |
| < 6.00 | – | – | – | – | – | COc1cnc(N2CCOCC2)c2sc(NC(=O)N3CCC4(CCN(C)C4=O)CC3)nc12 [drawing 205] |
| < 6.00 | – | – | – | – | – | COc1cnc(N2CCOCC2)c2sc(NC(=O)N3CCOCC3)nc12 [drawing 213] |
